Laboratory results taken from patent publication US9708314B2, “Heterocyclic amide compound” (NISSAN CHEMICAL INDUSTRIES, LTD., priority 2013, dated 2017).

How the values were obtained:
Assay type in all cases: in vivo
Abutilon theophrasti = assay: Test Example 4: herbicidal effect by application to foliage (diluvial soil, plastic box); details: for M (Abutilon theophrasti) herbicidal effect grade: foliage application, 320 g/ha
Outline: (§1)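 Greenhouse plants (25° C. to 30° C., 14 d, diluvial soil) receive a foliar spray of water-diluted emulsifiable formulation at defined g/ha. Grading after 3 weeks uses a six-step herbicidal-ratio scale, with 4 covering 70% to <90% and 1 covering 5% to <20%.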

Stellaria media = assay: as above; details: for P (Stellaria media) herbicidal effect grade: foliage application, 320 g/ha
Outline: as §1

Avena fatua = assay: as above; details: for I (Avena fatua) herbicidal effect grade: foliage application, 320 g/ha
Outline: as §1

Chenopodium album = assay: as above; details: for O (Chenopodium album) herbicidal effect grade: foliage application, 320 g/ha
Outline: as §1

Alopecurus myosuroides = assay: as above; details: for J (Alopecurus myosuroides) herbicidal effect grade: foliage application, 320 g/ha
Outline: as §1

Lolium multiflorum Lam. = assay: as above; details: for K (Lolium multiflorum Lam.) herbicidal effect grade: foliage application, 320 g/ha
Outline: as §1

[1] = test system: Echinochloa crus-galli var. crus-galli; assay: as above; details: for H (Echinochloa crus-galli var. crus-galli) herbicidal effect grade: foliage application, 320 g/ha
Outline: as §1

Apera spica-venti. = assay: as above; details: for L (Apera spica-venti.) herbicidal effect grade: foliage application, 320 g/ha
Outline: as §1

Galium spurium = assay: as above; details: for Q (Galium spurium) herbicidal effect grade: foliage application, 320 g/ha
Outline: as §1

Setaria viridis = assay: as above; details: for G (Setaria viridis) herbicidal effect grade: foliage application, 320 g/ha
Outline: as §1

Amaranthus retroflexus = assay: as above; details: for N (Amaranthus retroflexus) herbicidal effect grade: foliage application, 320 g/ha
Outline: as §1

Veronica persica = assay: as above; details: for R (Veronica persica) herbicidal effect grade: foliage application, 320 g/ha
Outline: as §1

Digitaria ciliaris = assay: as above; details: for F (Digitaria ciliaris) herbicidal effect grade: foliage application, 320 g/ha
Outline: as §1

[2] = test system: Beta vulgaris ssp. vulgaris; assay: Test Example 4: effect on crop by application to foliage (diluvial soil, plastic box); details: for f (Beta vulgaris ssp. vulgaris) effect on crop grade: foliage application, 320 g/ha
Outline: as §1

[3] = test system: directly sowed Oryza sativa; assay: as above; details: for d (directly sowed Oryza sativa) effect on crop grade: foliage application, 320 g/ha
Outline: as §1

Triticum aestivum = assay: as above; details: for e (Triticum aestivum) effect on crop grade: foliage application, 320 g/ha
Outline: as §1

Zea mays = assay: as above; details: for b (Zea mays) effect on crop grade: foliage application, 320 g/ha
Outline: as §1

Brassica campestris L. = assay: as above; details: for g (Brassica campestris L.) effect on crop grade: foliage application, 320 g/ha
Outline: as §1

Glycine max = assay: as above; details: for c (Glycine max) effect on crop grade: foliage application, 320 g/ha
Outline: as §1

[4] = test system: directly sowed Oryza sativa; assay: Test Example 3: effect on crop by application to foliage (Wagner pot, water depth 0.1-0.5 cm); details: Nineteenth Table; application to foliage; application herbicide amount 320 g/ha
Outline: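 Three weeks after spraying, each species was graded 0–5 for herbicidal ratio, 5 being 90% or more. Application: water-diluted emulsifiable concentrate at a fixed g/ha to foliage of 14-day-old greenhouse (25–30 °C) plants in alluvial soil.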

[5] = application to foliage, application herbicide amount 320 g/ha

Compound | M (Abutilon theophrasti) herbicidal effect grade (Abutilon theophrasti) | P (Stellaria media) herbicidal effect grade (Stellaria media) | I (Avena fatua) herbicidal effect grade (Avena fatua) | O (Chenopodium album) herbicidal effect grade (Chenopodium album) | J (Alopecurus myosuroides) herbicidal effect grade (Alopecurus myosuroides) | K (Lolium multiflorum Lam.) herbicidal effect grade (Lolium multiflorum Lam.) | H (Echinochloa crus-galli var. crus-galli) herbicidal effect grade [1] | L (Apera spica-venti.) herbicidal effect grade (Apera spica-venti.) | Q (Galium spurium) herbicidal effect grade (Galium spurium) | G (Setaria viridis) herbicidal effect grade (Setaria viridis) | N (Amaranthus retroflexus) herbicidal effect grade (Amaranthus retroflexus) | R (Veronica persica) herbicidal effect grade (Veronica persica) | F (Digitaria ciliaris) herbicidal effect grade (Digitaria ciliaris) | f (Beta vulgaris ssp. vulgaris) effect on crop grade [2] | d (directly sowed Oryza sativa) effect on crop grade [3] | e (Triticum aestivum) effect on crop grade (Triticum aestivum) | b (Zea mays) effect on crop grade (Zea mays) | g (Brassica campestris L.) effect on crop grade (Brassica campestris L.) | c (Glycine max) effect on crop grade (Glycine max) | b (effect on crop grade) [4] | other results
CN(C)c1nnc2c(C(=O)Nc3nnnn3C)ccc(C(F)(F)F)n12 [2-051] | 5 (Herbicidal ratio of 90% or more (almost completely withered)) | 5 (Herbicidal ratio of 90% or more (almost completely withered)) | 5 (Herbicidal ratio of 90% or more (almost completely withered)) | 5 (Herbicidal ratio of 90% or more (almost completely withered)) | 4 (Herbicidal ratio of 70% or more and less than 90%) | 4 (Herbicidal ratio of 70% or more and less than 90%) | 5 (Herbicidal ratio of 90% or more (almost completely withered)) | 5 (Herbicidal ratio of 90% or more (almost completely withered)) | 5 (Herbicidal ratio of 90% or more (almost completely withered)) | 5 (Herbicidal ratio of 90% or more (almost completely withered)) | 5 (Herbicidal ratio of 90% or more (almost completely withered)) | 5 (Herbicidal ratio of 90% or more (almost completely withered)) | 5 (Herbicidal ratio of 90% or more (almost completely withered)) | 5 (Herbicidal ratio of 90% or more (almost completely withered)) | 4 (Herbicidal ratio of 70% or more and less than 90%) | 4 (Herbicidal ratio of 70% or more and less than 90%) | 4 (Herbicidal ratio of 70% or more and less than 90%) | 4 (Herbicidal ratio of 70% or more and less than 90%) | 2 (Herbicidal ratio of 20% or more and less than 40%) | 4 (Herbicidal ratio of 70% or more and less than 90%) | 
Cn1nnnc1NC(=O)c1ccc(C(F)(F)F)n2c(-c3ccc(F)cc3)nnc12 [2-043] | 5 (Herbicidal ratio of 90% or more (almost completely withered)) | 5 (Herbicidal ratio of 90% or more (almost completely withered)) | 4 (Herbicidal ratio of 70% or more and less than 90%) | 5 (Herbicidal ratio of 90% or more (almost completely withered)) | 3 (Herbicidal ratio of 40% or more and less than 70%) | 2 (Herbicidal ratio of 20% or more and less than 40%) | 5 (Herbicidal ratio of 90% or more (almost completely withered)) | 4 (Herbicidal ratio of 70% or more and less than 90%) | 4 (Herbicidal ratio of 70% or more and less than 90%) | 4 (Herbicidal ratio of 70% or more and less than 90%) | 5 (Herbicidal ratio of 90% or more (almost completely withered)) | 5 (Herbicidal ratio of 90% or more (almost completely withered)) | 5 (Herbicidal ratio of 90% or more (almost completely withered)) | 5 (Herbicidal ratio of 90% or more (almost completely withered)) | 4 (Herbicidal ratio of 70% or more and less than 90%) | 3 (Herbicidal ratio of 40% or more and less than 70%) | 3 (Herbicidal ratio of 40% or more and less than 70%) | 4 (Herbicidal ratio of 70% or more and less than 90%) | 1 (Herbicidal ratio of 5% or more and less than 20%) | 5 (Herbicidal ratio of 90% or more (almost completely withered)) | 
Cn1nnnc1NC(=O)c1ccc(C(F)(F)F)n2c(CS(C)(=O)=O)nnc12 [2-034] | 5 (Herbicidal ratio of 90% or more (almost completely withered)) | 5 (Herbicidal ratio of 90% or more (almost completely withered)) | 5 (Herbicidal ratio of 90% or more (almost completely withered)) | 5 (Herbicidal ratio of 90% or more (almost completely withered)) | 5 (Herbicidal ratio of 90% or more (almost completely withered)) | 5 (Herbicidal ratio of 90% or more (almost completely withered)) | 5 (Herbicidal ratio of 90% or more (almost completely withered)) | 5 (Herbicidal ratio of 90% or more (almost completely withered)) | 5 (Herbicidal ratio of 90% or more (almost completely withered)) | 5 (Herbicidal ratio of 90% or more (almost completely withered)) | 5 (Herbicidal ratio of 90% or more (almost completely withered)) | 5 (Herbicidal ratio of 90% or more (almost completely withered)) | 5 (Herbicidal ratio of 90% or more (almost completely withered)) | 5 (Herbicidal ratio of 90% or more (almost completely withered)) | 5 (Herbicidal ratio of 90% or more (almost completely withered)) | 5 (Herbicidal ratio of 90% or more (almost completely withered)) | 5 (Herbicidal ratio of 90% or more (almost completely withered)) | 5 (Herbicidal ratio of 90% or more (almost completely withered)) | 3 (Herbicidal ratio of 40% or more and less than 70%) | 5 (Herbicidal ratio of 90% or more (almost completely withered)) | 
Cc1nnc2c(C(=O)Nc3nnnn3C)ccc(C(F)(F)F)n12 [2-002] |  |  |  |  |  |  |  |  |  |  |  |  |  |  |  |  |  |  |  | 2 (Herbicidal ratio of 20% or more and less than 40%) | M: herbicidal effect on Abutilon theophrasti (Abutilon theophrasti; [5]): 5 (Herbicidal ratio of 90% or more (almost completely withered)); P: herbicidal effect on Stellaria media (Stellaria media; [5]): 5 (Herbicidal ratio of 90% or more (almost completely withered)); I: herbicidal effect on Avena fatua (Avena fatua; [5]): 3 (Herbicidal ratio of 40% or more and less than 70%); O: herbicidal effect on Chenopodium album (Chenopodium album; [5]): 5 (Herbicidal ratio of 90% or more (almost completely withered)); J: herbicidal effect on Alopecurus myosuroides (Alopecurus myosuroides; [5]): 1 (Herbicidal ratio of 5% or more and less than 20%); K: herbicidal effect on Lolium multiflorum Lam. (Lolium multiflorum Lam.; [5]): 1 (Herbicidal ratio of 5% or more and less than 20%); H: herbicidal effect on Echinochloa crus-galli var. crus-galli [1, 5]: 5 (Herbicidal ratio of 90% or more (almost completely withered)); L: herbicidal effect on Apera spica-venti. (Apera spica-venti.; [5]): 1 (Herbicidal ratio of 5% or more and less than 20%); Q: herbicidal effect on Galium spurium (Galium spurium; [5]): 4 (Herbicidal ratio of 70% or more and less than 90%); G: herbicidal effect on Setaria viridis (Setaria viridis; [5]): 3 (Herbicidal ratio of 40% or more and less than 70%); N: herbicidal effect on Amaranthus retroflexus (Amaranthus retroflexus; [5]): 5 (Herbicidal ratio of 90% or more (almost completely withered)); R: herbicidal effect on Veronica persica (Veronica persica; [5]): 5 (Herbicidal ratio of 90% or more (almost completely withered)); F: herbicidal effect on Digitaria ciliaris (Digitaria ciliaris; [5]): 4 (Herbicidal ratio of 70% or more and less than 90%); f: effect on crop, Beta vulgaris ssp. vulgaris [2, 5]: 5 (Herbicidal ratio of 90% or more (almost completely withered)); b: effect on crop, directly sowed Oryza sativa [3, 5]: 2 (Herbicidal ratio of 20% or more and less than 40%); e: effect on crop, Triticum aestivum (Triticum aestivum; [5]): 1 (Herbicidal ratio of 5% or more and less than 20%); c: effect on crop, Zea mays (Zea mays; [5]): 0 (Herbicidal ratio of 5% or less (almost no effect)); g: effect on crop, Brassica campestris L. (Brassica campestris L.; [5]): 4 (Herbicidal ratio of 70% or more and less than 90%); d: effect on crop, Glycine max (Glycine max; [5]): 3 (Herbicidal ratio of 40% or more and less than 70%)
